ChEMBL document CHEMBL1139402, “Design and SAR of new substituted purines bearing aryl groups at N9 position as HIV-1 Tat-TAR interaction inhibitors” (Bioorg Med Chem, 2008)

What was measured:
[1] = system: Simian immunodeficiency virus; experiment: Antiviral activity against SIV-induced syncytium in human CEM cells assessed as inhibition of virus-induced cytopathogenicity after 5 days; format: functional, organism-based; conditions: CCRF-CEM, 120 h
[2] = Cytotoxicity against human CEM cells assessed as inhibition of uninfected cells proliferation; format: cell-based; conditions: CEM (CCRF-CEM) cells, read-out: TC50 (the source's name)
[3] = Selectivity index, ratio of TC50 for human CEM cells to EC50 for SIV-induced syncytium; parameters: species or system CCRF-CEM
[4] = system: Human immunodeficiency virus 1; experiment: Inhibition of HIV1 Tat-TAR interaction-mediated transactivation in human 293T cells assessed as CAT gene expression at 30 uM after 24 hrs by ELISA; format: functional; conditions: Human immunodeficiency virus 1, HEK-293T

SMILES | EC50 [1] | CC50 [2] | Ratio [3] | inhibition at 30 µM [4]
CCN(CC)c1nc(C)c2nc(SCC(=O)NCCNC(=N)N)n(CCn3cncn3)c2n1 | 12.4 µM | > 100 µM | >8.1 | 
CCN(CC)c1nc(C)c2nc(SCC(=O)NCCNC(=N)N)n(CCCn3cncn3)c2n1 | 5.4 µM | > 100 µM | >18.5 | 48.2%
CCN(CC)c1nc(C)c2nc(SCC(=O)NCCCNC(=N)N)n(CCCn3cncn3)c2n1 | 5.8 µM | > 100 µM | >17.2 | 
CCN(CC)c1nc(C)c2nc(SCC(=O)NCCCNC(=N)N)n(CCn3cncn3)c2n1 | 7.1 µM | > 100 µM | >14.1 | 
CCN(CC)c1nc(C)c2nc(SCC(=O)NCCCNC(=N)N)n(CCNc3ncnc4[nH]cnc34)c2n1 | 13 µM | > 100 µM | >7.7 | 58.6%
CCN(CC)c1nc(C)c2nc(SCC(=O)NCCNC(=N)N)n(CCNc3nc(N)nc4[nH]cnc34)c2n1 | 6.1 µM | > 100 µM | >16.4 | 
CCN(CC)c1nc(C)c2nc(SCC(=O)NCCCNC(=N)N)n(CCc3c[nH]c4ccccc34)c2n1 | 5.6 µM | 29.1 µM | 5.2 | 
CCN(CC)c1nc(C)c2nc(SCC(=O)NCCNC(=N)N)n(CCCN3CCOCC3)c2n1 | 18.9 µM | > 100 µM | >5.3 | 81.8%
CCN(CC)c1nc(C)c2nc(SCC(=O)NCCCNC(=N)N)n(CCCN3CCOCC3)c2n1 | 11.2 µM | > 100 µM | >8.9 | 48.2%
CCN(CC)c1nc(C)c2nc(SCC(=O)NCCN)n(CCc3c[nH]c4ccccc34)c2n1 | 1.6 µM | 6.5 µM | 4.1 | 
CCN(CC)c1nc(C)c2nc(SCC(=O)NCCCN)n(CCc3c[nH]c4ccccc34)c2n1 | 4.2 µM | 10.2 µM | 2.4 | 
CCN(CC)c1nc(C)c2nc(SCC(=O)NCCNC(=N)N)n(CCc3c[nH]c4ccccc34)c2n1 | 7.9 µM | 29.5 µM | 3.7 | 
CCN(CC)c1nc(C)c2nc(SCC(=O)NCCCN)n(CCNc3ncnc4[nH]cnc34)c2n1 | 5.5 µM | > 100 µM | >18.2 | 52.3%
CCN(CC)c1nc(C)c2nc(SCC(=O)NCCN)n(CCNc3nc(N)nc4[nH]cnc34)c2n1 | 20 µM | > 100 µM | >5 | 
CCN(CC)c1nc(C)c2nc(SCC(=O)NCCCN)n(CCNc3nc(N)nc4[nH]cnc34)c2n1 | 6.5 µM | > 100 µM | >15.4 | 
CCN(CC)c1nc(C)c2nc(SCC(=O)NCCNC(=N)N)n(CCNc3ncnc4[nH]cnc34)c2n1 | 7.8 µM | 92.7 µM | 11.9 | 48.2%
CCN(CC)c1nc(C)c2nc(SCC(=O)NCCCNC(=N)N)n(CCNc3nc(N)nc4[nH]cnc34)c2n1 | 8.3 µM | > 100 µM | >12 | 
CCN(CC)c1nc(C)c2nc(SCC(=O)NCCN)n(CCn3cncn3)c2n1 | 13.8 µM | > 100 µM | >7.2 | 
CCN(CC)c1nc(C)c2nc(SCC(=O)NCCCN)n(CCn3cncn3)c2n1 | 11.5 µM | > 100 µM | >8.7 | 
CCN(CC)c1nc(C)c2nc(SCC(=O)NCCN)n(CCCn3cncn3)c2n1 | 6.9 µM | > 100 µM | >14.5 | 48.2%
CCN(CC)c1nc(C)c2nc(SCC(=O)NCCN)n(CCCN3CCOCC3)c2n1 | 12.4 µM | 64.8 µM | 5.2 | 80.4%
CCN(CC)c1nc(C)c2nc(SCC(=O)NCCCN)n(CCCn3cncn3)c2n1 | 8.9 µM | 31.7 µM | 3.6 | 
CCN(CC)c1nc(C)c2nc(SCC(=O)NCCN)n(CCNc3ncnc4[nH]cnc34)c2n1 | 2.5 µM | > 100 µM | >40 | 48.2%
CCN(CC)c1nc(C)c2nc(SCC(=O)NCCCN)n(CCCN3CCOCC3)c2n1 | 11.8 µM | 87.5 µM | 7.4 | 83%
